{"source": "patent US10426782B2", "about": "“Pharmaceutical formulations of a pan-RAF kinase inhibitor and processes for their preparation” (Millennium Pharmaceuticals, Inc., priority 2014, dated 2019)", "type_in_all_cases": "physicochemical", "key": {"log p of Compound 1": {"assay": "log p of Compound 1"}, "[1]": {"assay": "Thermal gravimetric analysis (TGA)", "conditions": "elevated temperatures below 200° C.", "method": "A suitable hot melt extruder (e.g. twin screw, Leistritz Nano-16 mm or Micro-18 mm) is set up with the appropriate supporting equipment, including a cooling conveyor (e.g., Domer model 220M060600D0169 or Nara TBC-309-DC) and feeder with auger (e.g., K-Tron Gravimeteric Feeder e.g., with dual flight 20 mm auger). Example processing parameters are as follows: feed rate: 2.0 kg/hr; screw speed: 250 rpm; and barrel temperature: 170, 140, 90, 50° C. or 1.0 kg/hr; screw speed: 275 rpm; and barrel temperature: 175, 140, 90, 50° C."}, "Solubility of Compound 1": {"assay": "Solubility of Compound 1"}}, "data": [{"smiles": "C[C@@H](NC(=O)c1ncnc(N)c1Cl)c1ncc(C(=O)Nc2cc(C(F)(F)F)c(Cl)cn2)s1", "note": "[Compound 1, (R)-2-(1-(6-amino-5-chloropyrimidine-4-carboxamido)ethyl)-N-(5-chloro-4-(trifluoromethyl)pyridin-2-yl)thiazole-5-carboxamide]", "values": [{"measurement": "logP", "setting": "log p of Compound 1", "value": 3.63}, {"measurement": "thermal stability by TGA", "setting": "[1]", "value": "relatively stable"}, {"measurement": "solubility", "setting": "Solubility of Compound 1", "value": "< 1000", "unit": "µg/mL"}]}]}
